One compound from patent US20200121747A1, “COMPOSITION FOR PREVENTING OR TREATING ARTHRITIS COMPRISING HYDROQUINOIC ACID” (PUKYONG NATIONAL UNIVERSITY INDUSTRY-UNIVERSITY COOPERATION …, priority 2018, published 2020) can be followed below.

The nature of this data set: Body weight change in rheumatoid arthritis (CIA) mice. It counts as in vivo, DBA/1J mice. As to conditions: arthritis mice treated with 10 mg and 20 mg of SHQA; measured weekly for 7 weeks; FIG. 4. The method, then:
Eight weeks old male DBA/1J mice (Central Lab Animal Inc., Seoul, Korea) were raised for 1 week in an environment maintaining temperature (25±2° C.), humidity (55%) and 12 hour light and dark cycle. All experiments were carried out in accordance with the guidelines of the Korean National Institutes of Health Guide for the Care and Use of Laboratory Animals, and the animal testing procedure was approved by the Animal Ethics Committee of Pukyong National University (2015-12). Rheumatoid arthritis was induced in male DBA/1J mice. Type II collagen was emulsified (CFA; 2 mg/mL) in the same volume of complete Freund's adjuvant. On day 0, 100 μg of […] was injected intradermally into the lower tail portion of the DBA/1J mice to immunize. After 21 days, 100 μg of CII (IFA; 2 mg/mL) emulsified in the same volume of incomplete Freund's adjuvant in the lower tail portion of the mice was boosted by intradermal injection. On day 42, all mice were anesthetized with ether and sacrificed. Blood (plasma sample), spleen, liver and joint tissues were immediately removed and stored at −80° C. […]
For the control group without treatment, the arthritis animal group (CIA treatment group), and the treated group in which arthritis experimental animals were treated with 10 mg and 20 mg of SHQA, their body weights were measured weekly for 7 weeks. […]

For `CC(C)=CCC/C(=C/CC/C(C)=C/CC/C(C)=C/Cc1cc(O)cc(C)c1O)C(=O)O` [SHQA, sargahydroquinoic acid], the “change in body weight” value is “no significant change in body weight”.
